System: P12-Ichikawa
Assay: cell viability relative to DMSO control; higher = less cytotoxic
Settings: 48 h
Summary of the method: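 Viability values are per-plate percentages of DMSO wells, with background from cell-free wells. Library compounds in DMSO were pin-dosed, in an 11-point threefold series from 47 μM to 0.79 nM, onto NOMO1 or SEM (500 cells/well) or P12-Ichikawa (1000 cells/well) leukemia cells in 1536-well plates (5 μl). Those cells had been adapted for at least four passages in each medium, and CellTiter-Glo One luminescence was read after 48 h at 37°C.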

[1] = HPLM + 10% dialyzed FBS, 0.000781 µM
[2] = HPLM + 10% dialyzed FBS, 0.00234 µM
[3] = HPLM + 10% dialyzed FBS, 0.00702 µM
[4] = HPLM + 10% dialyzed FBS, 0.0211 µM
[5] = HPLM + 10% dialyzed FBS, 0.0632 µM
[6] = HPLM + 10% dialyzed FBS, 0.19 µM
[7] = HPLM + 10% dialyzed FBS, 0.569 µM
[8] = HPLM + 10% dialyzed FBS, 1.71 µM
[9] = HPLM + 10% dialyzed FBS, 5.12 µM
[10] = HPLM + 10% dialyzed FBS, 15.4 µM
[11] = HPLM + 10% dialyzed FBS, 46.1 µM
[12] = RPMI 5 mM glucose + 10% FBS, 0.000781 µM
[13] = RPMI 5 mM glucose + 10% FBS, 0.00234 µM
[14] = RPMI 5 mM glucose + 10% FBS, 0.00702 µM
[15] = RPMI 5 mM glucose + 10% FBS, 0.0211 µM
[16] = RPMI 5 mM glucose + 10% FBS, 0.0632 µM
[17] = RPMI 5 mM glucose + 10% FBS, 0.19 µM
[18] = RPMI 5 mM glucose + 10% FBS, 0.569 µM
[19] = RPMI 5 mM glucose + 10% FBS, 1.71 µM
[20] = RPMI 5 mM glucose + 10% FBS, 5.12 µM
[21] = RPMI 5 mM glucose + 10% FBS, 15.4 µM
[22] = RPMI 5 mM glucose + 10% FBS, 46.1 µM
[23] = RPMI 5 mM glucose + 10% dialyzed FBS, 0.000781 µM
[24] = RPMI 5 mM glucose + 10% dialyzed FBS, 0.00234 µM
[25] = RPMI 5 mM glucose + 10% dialyzed FBS, 0.00702 µM
[26] = RPMI 5 mM glucose + 10% dialyzed FBS, 0.0211 µM
[27] = RPMI 5 mM glucose + 10% dialyzed FBS, 0.0632 µM
[28] = RPMI 5 mM glucose + 10% dialyzed FBS, 0.19 µM
[29] = RPMI 5 mM glucose + 10% dialyzed FBS, 0.569 µM
[30] = RPMI 5 mM glucose + 10% dialyzed FBS, 1.71 µM
[31] = RPMI 5 mM glucose + 10% dialyzed FBS, 5.12 µM
[32] = RPMI 5 mM glucose + 10% dialyzed FBS, 15.4 µM
[33] = RPMI 5 mM glucose + 10% dialyzed FBS, 46.1 µM

Row | Compound | cell viability [1] [%] | cell viability [2] [%] | cell viability [3] [%] | cell viability [4] [%] | cell viability [5] [%] | cell viability [6] [%] | cell viability [7] [%] | cell viability [8] [%] | cell viability [9] [%] | cell viability [10] [%] | cell viability [11] [%] | cell viability [12] [%] | cell viability [13] [%] | cell viability [14] [%] | cell viability [15] [%] | cell viability [16] [%] | cell viability [17] [%] | cell viability [18] [%] | cell viability [19] [%] | cell viability [20] [%] | cell viability [21] [%] | cell viability [22] [%] | cell viability [23] [%] | cell viability [24] [%] | cell viability [25] [%] | cell viability [26] [%] | cell viability [27] [%] | cell viability [28] [%] | cell viability [29] [%] | cell viability [30] [%] | cell viability [31] [%] | cell viability [32] [%] | cell viability [33] [%]
1 | O=C1[C@H](Cc2ccc(O)cc2)N2C(=O)CCN(C(=O)NCc3ccccc3)[C@H]2CN1Cc1cccc2ccccc12 | 86.7 | 90.8 | 85.3 | 89.4 | 87.9 | 88.1 | 85.4 | 85.5 | 91.2 | 47.9 | 85.8 | 76.6 | 84.4 | 76.3 | 83 | 88.6 | 87.7 | 83 | 74 | 84.1 | 35 | 84.2 | 77.4 | 78.2 | 80.4 | 79.5 | 85 | 82.1 | 77.3 | 75.4 | 81.1 | 33.2 | 72.5
2 | COC(=O)C[C@](O)(CCCC(C)(C)O)C(=O)O[C@@H]1C(OC)=CC23CCCN2CCc2cc4c(cc2[C@H]13)OCO4 (stereo not given in full) | 105 | 102 | 111 | 99.4 | 110 | 106 | 102 | 97.1 | 102 | 91.3 | 88.1 | 99 | 101 | 111 | 94.8 | 91.5 | 101 | 103 | 97.7 | 95.1 | 91.7 | 94.1 | 102 | 104 | 98.6 | 99.7 | 102 | 98.3 | 97.3 | 96 | 91.6 | 100 | 89.5
3 | CNCC(O)c1ccc(O)cc1 (stereo not given) | 103 | 106 | 113 | 113 | 124 | 122 | 118 | 118 | 120 | 119 | 120 | 99.8 | 116 | 114 | 121 | 124 | 127 | 122 | 129 | 123 | 131 | 107 | 99.4 | 110 | 115 | 119 | 114 | 113 | 118 | 113 | 123 | 121 | 114
4 | CNc1nc(Nc2ccc(C(=O)N3CCOCC3)cc2OC)ncc1Cl |  |  |  |  |  |  |  |  |  |  |  | 120 | 116 | 122 | 119 | 120 | 115 | 113 | 107 | 108 | 108 | 101 | 123 | 115 | 121 | 116 | 123 | 125 | 116 | 124 | 112 | 109 | 104
5 | CCc1ccc(CCOc2ccc(CC3SC(=O)NC3=O)cc2)nc1 (stereo not given) | 121 | 118 | 123 | 117 | 116 | 113 | 113 | 113 | 108 | 108 | 108 | 118 | 112 | 118 | 115 | 117 | 112 | 127 | 119 | 109 | 118 | 119 | 123 | 118 | 129 | 120 | 126 | 116 | 114 | 121 | 120 | 111 | 100
6 | CC(C)(O)CC[C@@H](O)[C@](C)(O)[C@H]1CC[C@@]2(O)C/3=C/C(=O)[C@@H]4C[C@@H](O)[C@@H](O)C[C@]4(C)[C@H]3CC[C@]12C | 100 | 103 | 94.5 | 96.6 | 102 | 98.4 | 88.6 | 93.6 | 89.2 | 89.6 | 87.4 | 90.7 | 96.3 | 93.4 | 96.3 | 86.7 | 104 | 92.2 | 94.1 | 88 | 86 | 96.8 | 95 | 90.6 | 90.8 | 89 | 94.6 | 89.2 | 88.8 | 86.9 | 91.2 | 83.3 | 89.4
7 | O=C1NC(=O)/C(=C/c2ccc3nccc(-c4ccncc4)c3c2)S1 | 112 | 120 | 122 | 115 | 98.4 | 95.9 | 83.8 | 68.4 | 57.4 | 36.1 | 5.85 | 109 | 107 | 103 | 109 | 96.2 | 74.5 | 64.2 | 50.2 | 32.6 | 17.1 | 7.42 | 104 | 109 | 114 | 115 | 98.8 | 83.3 | 68.2 | 51.1 | 34.3 | 20.6 | 6.67
8 | O=C(O)C1(Cc2cccc(Nc3nccs3)n2)CCC(Oc2cccc(Cl)c2F)CC1 (stereo not given) | 102 | 111 | 112 | 108 | 115 | 114 | 99.5 | 57.8 | 39.4 | 18.8 | 13.7 | 102 | 116 | 108 | 93.8 | 122 | 111 | 108 | 65.8 | 47.1 | 33.9 | 17.3 | 108 | 116 | 118 | 116 | 116 | 117 | 115 | 68.9 | 65.2 | 33.5 | 31.8
9 | Cn1cnc2c(F)c(Nc3ccc(Br)cc3F)c(C(=O)NOCCO)cc21 | 88.4 | 101 | 96.6 | 11.1 | 102 | 91.9 | 91 | 85.7 | 87.2 | 86.3 | 81.2 | 84.5 | 92.6 | 96.7 | 13.6 | 92.3 | 82.7 | 80.1 | 78.2 | 75.5 | 74.2 | 73.1 | 91 | 98 | 101 | 26.2 | 97 | 93.5 | 83.8 | 89.1 | 91.8 | 86.6 | 81.4
10 | Cc1c(C)n(Cc2ccc(-c3ccccc3C(=O)O)cc2)c2ccc(C(=O)N[C@@H](C)c3ccc([N+](=O)[O-])cc3)cc12 | 103 | 105 | 102 | 107 | 103 | 109 | 109 | 120 | 114 | 25.8 | 33.6 | 101 | 104 | 102 | 96.8 | 112 | 110 | 114 | 102 | 113 | 25.2 | 25.1 | 99.6 | 97.5 | 106 | 105 | 106 | 101 | 113 | 108 | 114 | 25.5 | 20
11 | C[C@]12CCC(=O)C=C1CC[C@@H]1[C@@H]2[C@@H](O)C[C@@]2(C)[C@H]1CC[C@]2(O)C(=O)CO | 107 | 106 | 105 | 107 | 111 | 111 | 115 | 94.1 | 89.7 | 88.9 | 84.4 | 104 | 103 | 103 | 115 | 113 | 109 | 104 | 83.2 | 78.4 | 70.9 | 69.2 | 104 | 115 | 107 | 119 | 112 | 114 | 100 | 78.5 | 78.3 | 65.4 | 64.2
12 | CNCCCC12CCC(c3ccccc31)c1ccccc12 | 93.5 | 95.7 | 96.7 | 95.5 | 103 | 96.2 | 95.8 | 92.7 | 87.8 | 85.8 | 63.5 | 94.1 | 99.5 | 102 | 103 | 104 | 95.9 | 91.8 | 90.2 | 84.4 | 76.6 | 62.6 | 93 | 98.2 | 96.6 | 101 | 98.3 | 88.7 | 97.7 | 85.7 | 86.5 | 73.1 | 54.8
13 | CC[C@]12CC[C@H]3[C@@H](CCC/4=C/C(=O)CC[C@H]34)[C@@H]1\C=C/[C@@]2(O)C#C | 109 | 124 | 124 | 125 | 132 | 129 | 128 | 120 | 122 | 123 | 119 |  |  |  |  |  |  |  |  |  |  |  | 106 | 110 | 121 | 115 | 119 | 114 | 124 | 123 | 118 | 113 | 116
14 | OC[C@H]1O[C@H]([C@H](O)[C@@H]1O)N2\C=C/C(=O)NC2=O | 108 | 103 | 99.1 | 111 | 101 | 104 | 109 | 103 | 99.4 | 110 | 99.6 | 104 | 109 | 103 | 103 | 97.6 | 104 | 117 | 95.3 | 107 | 96 | 90.8 | 101 | 89.1 | 95.9 | 101 | 102 | 98.3 | 109 | 97.1 | 96 | 89.5 | 92.4
15 | CC(C)(C#N)c1cc(Cn2cncn2)cc(C(C)(C)C#N)c1 | 120 | 119 | 117 | 119 | 117 | 116 | 115 | 115 | 113 | 108 | 97 | 130 | 118 | 121 | 129 | 120 | 124 | 128 | 131 | 113 | 112 | 112 |  |  |  |  |  |  |  |  |  |  | 
16 | CC(C)(C)OC(=O)N[C@H]1CCCCC/C=C\[C@@H]2C[C@@]2(C(=O)N[S+](=O)([O-])C2CC2)NC(=O)[C@@H]2C[C@@H](OC(=O)N3Cc4cccc(F)c4C3)CN2C1=O | 108 | 114 | 108 | 109 | 112 | 114 | 115 | 111 | 108 | 104 | 87.1 | 110 | 108 | 110 | 108 | 114 | 112 | 125 | 114 | 113 | 104 | 82.1 | 95.2 | 104 | 117 | 94.3 | 105 | 104 | 112 | 106 | 94.2 | 89.3 | 80.5

From the supplement of paper PMC11451515
